# Reference: ChEMBL document CHEMBL3885861, “Open TG-GATES”
# Species: Rattus norvegicus
# Experiment: Open TG-GATES - Regimen: Single
# Assay type: toxicity, organism-based, Sprague-Dawley
# Set-up: regimen Single, gender Male, age 6 weeks
# Conditions: in vivo, po, 250 mg/kg, route gavage, dose level High; for APTT / Bas / Eos / Fbg / Hb / Ht / Lym / MCH / MCHC / MCV / Mono / Neu / PT / Plat / RBC / Ret / WBC: tissue Blood; for KIDNEY_L / KIDNEY_R / KIDNEY_TOTAL: tissue Kidney; for LIVER: tissue Liver; for A/G / ALP / ALT / AST / BUN / CRE / Ca / Cl / DBIL / GLC / IP / K / LDH / Na / PL / RALB / TBIL / TC / TG / TP / gamma-GTP: tissue Plasma
smiles,measurement,setting,value
CCSCC[C@H](N)C(=O)O [ETHIONINE],TERMINAL_BW,3 h,215.1 g
same,APTT,3 h,18.5 s
same,Bas,3 h,0%
same,Eos,3 h,1%
same,Fbg,3 h,205.8 mg/dL
same,Hb,3 h,13.6 g/dL
same,Ht,3 h,40%
same,Lym,3 h,74%
same,MCH,3 h,21.4 pg
same,MCHC,3 h,34%
same,MCV,3 h,62.9 fL
same,Mono,3 h,2.6%
same,Neu,3 h,20.6%
same,PT,3 h,12.5 s
same,Plat,3 h,117.7 x10_4/uL
same,RBC,3 h,635.6 x10_4/ul
same,Ret,3 h,7%
same,WBC,3 h,90.5 x10_2/uL
same,KIDNEY_L,3 h,1 g
same,KIDNEY_R,3 h,1 g
same,KIDNEY_TOTAL,3 h,2 g
same,LIVER,3 h,9.7 g
same,A/G,3 h,1.4
same,ALP,3 h,1004.6 IU/L
same,ALT,3 h,37.6 IU/L
same,AST,3 h,68 IU/L
same,BUN,3 h,10.6 mg/dL
same,CRE,3 h,0.4 mg/dL
same,Ca,3 h,10.3 mg/dL
same,Cl,3 h,100.8 meq/L
same,DBIL,3 h,0.054 mg/dL
same,GLC,3 h,210.4 mg/dL
same,IP,3 h,9.8 mg/dL
same,K,3 h,3.8 meq/L
same,LDH,3 h,183.6 IU/L
same,Na,3 h,139.6 meq/L
same,PL,3 h,127.8 mg/dL
same,RALB,3 h,3.2 g/dL
same,TBIL,3 h,0.1 mg/dL
same,TC,3 h,71 mg/dL
same,TG,3 h,43.4 mg/dL
same,TP,3 h,5.4 g/dL
same,gamma-GTP,3 h,1.2 IU/L
same,TERMINAL_BW,6 h,215.3 g
same,APTT,6 h,19.4 s
same,Bas,6 h,0%
same,Eos,6 h,1%
same,Fbg,6 h,203.2 mg/dL
same,Hb,6 h,13 g/dL
same,Ht,6 h,38.2%
same,Lym,6 h,76%
same,MCH,6 h,21.4 pg
same,MCHC,6 h,34.1%
same,MCV,6 h,62.6 fL
same,Mono,6 h,2.8%
same,Neu,6 h,19.2%
same,PT,6 h,13.1 s
same,Plat,6 h,122.2 x10_4/uL
same,RBC,6 h,610.4 x10_4/ul
same,Ret,6 h,7.1%
same,WBC,6 h,98.9 x10_2/uL
same,KIDNEY_L,6 h,1 g
same,KIDNEY_R,6 h,1 g
same,KIDNEY_TOTAL,6 h,1.9 g
same,LIVER,6 h,9.2 g
same,A/G,6 h,1.3
same,ALP,6 h,809.2 IU/L
same,ALT,6 h,33.8 IU/L
same,AST,6 h,64.2 IU/L
same,BUN,6 h,10.4 mg/dL
same,CRE,6 h,0.4 mg/dL
same,Ca,6 h,10.2 mg/dL
same,Cl,6 h,102 meq/L
same,DBIL,6 h,0.058 mg/dL
same,GLC,6 h,198.8 mg/dL
same,IP,6 h,9.6 mg/dL
same,K,6 h,3.9 meq/L
same,LDH,6 h,213.8 IU/L
same,Na,6 h,139 meq/L
same,PL,6 h,116.6 mg/dL
same,RALB,6 h,3 g/dL
same,TBIL,6 h,0.1 mg/dL
same,TC,6 h,64.6 mg/dL
same,TG,6 h,44.4 mg/dL
same,TP,6 h,5.3 g/dL
same,gamma-GTP,6 h,1.6 IU/L
same,TERMINAL_BW,9 h,212.6 g
same,APTT,9 h,20.5 s
same,Bas,9 h,0%
same,Eos,9 h,1%
same,Fbg,9 h,214.2 mg/dL
same,Hb,9 h,13.3 g/dL
same,Ht,9 h,39.1%
same,Lym,9 h,73.6%
same,MCH,9 h,21.2 pg
same,MCHC,9 h,34.2%
same,MCV,9 h,62 fL
same,Mono,9 h,3.2%
same,Neu,9 h,21.2%
same,PT,9 h,13.3 s
same,Plat,9 h,127.2 x10_4/uL
same,RBC,9 h,630.2 x10_4/ul
same,Ret,9 h,7%
same,WBC,9 h,72.8 x10_2/uL
same,KIDNEY_L,9 h,1 g
same,KIDNEY_R,9 h,1 g
same,KIDNEY_TOTAL,9 h,2 g
same,LIVER,9 h,9 g
same,A/G,9 h,1.6
same,ALP,9 h,774 IU/L
same,ALT,9 h,29.8 IU/L
same,AST,9 h,58.4 IU/L
same,BUN,9 h,8 mg/dL
same,CRE,9 h,0.3 mg/dL
same,Ca,9 h,10.4 mg/dL
same,Cl,9 h,101.4 meq/L
same,DBIL,9 h,0.072 mg/dL
same,GLC,9 h,199 mg/dL
same,IP,9 h,9.3 mg/dL
same,K,9 h,3.6 meq/L
same,LDH,9 h,195 IU/L
same,Na,9 h,139.6 meq/L
same,PL,9 h,111.2 mg/dL
same,RALB,9 h,3.4 g/dL
same,TBIL,9 h,0.1 mg/dL
same,TC,9 h,57.2 mg/dL
same,TG,9 h,77.4 mg/dL
same,TP,9 h,5.6 g/dL
same,gamma-GTP,9 h,1.2 IU/L
same,TERMINAL_BW,24 h,221.6 g
same,APTT,24 h,22 s
same,Bas,24 h,0%
same,Eos,24 h,1%
same,Fbg,24 h,210.4 mg/dL
same,Hb,24 h,13.9 g/dL
same,Ht,24 h,41%
same,Lym,24 h,74.4%
same,MCH,24 h,21.3 pg
same,MCHC,24 h,34%
same,MCV,24 h,62.5 fL
same,Mono,24 h,5.8%
same,Neu,24 h,16.8%
same,PT,24 h,14.4 s
same,Plat,24 h,116 x10_4/uL
same,RBC,24 h,655 x10_4/ul
same,Ret,24 h,6.3%
same,WBC,24 h,94.1 x10_2/uL
same,KIDNEY_L,24 h,1 g
same,KIDNEY_R,24 h,1 g
same,KIDNEY_TOTAL,24 h,2 g
same,LIVER,24 h,10.6 g
same,A/G,24 h,1.6
same,ALP,24 h,988 IU/L
same,ALT,24 h,39 IU/L
same,AST,24 h,74.4 IU/L
same,BUN,24 h,16 mg/dL
same,CRE,24 h,0.4 mg/dL
same,Ca,24 h,10.6 mg/dL
same,Cl,24 h,101.4 meq/L
same,DBIL,24 h,0.1 mg/dL
same,GLC,24 h,198.2 mg/dL
same,IP,24 h,8.8 mg/dL
same,K,24 h,3.7 meq/L
same,LDH,24 h,211 IU/L
same,Na,24 h,140 meq/L
same,PL,24 h,122.6 mg/dL
same,RALB,24 h,3.4 g/dL
same,TBIL,24 h,0.2 mg/dL
same,TC,24 h,47.2 mg/dL
same,TG,24 h,144 mg/dL
same,TP,24 h,5.6 g/dL
same,gamma-GTP,24 h,1.2 IU/L
